Source: patent publication US12433961B2, “Near-infrared fluorescent probe specifically targeting tumors as well as synthesis method and use thereof” (NANJING NUOYUAN MEDICAL INSTRUMENT CO. LTD, priority 2022, dated 2025)

Tested on: colorectal cancer HT29 subcutaneous tumor
Test: In-vivo near-infrared fluorescence imaging in subcutaneous HT29 tumor-bearing mouse model
Settings: HT29 tumor-bearing mice, 30 nmol tail vein, imaging 0 h-48 h
Method: In a subcutaneous tumor HT29 tumor-bearing mouse model, YQ-H (30 nmol, dissolved with 100 μL of normal saline for injection) series probes respectively underwent tail vein administration, fluorescence imaging was respectively photographed at different time points (0 h, 6 h, 12 h, 24 h and 48 h in sequence) by small animal living imaging CCD.

For CC1(C)C(/C=C/C2=C(SCCC(=O)NCCCCCC(=O)N(CCS(C)(=O)=O)Cc3ccc(-c4ccc5ncnc(Nc6ccc(OCc7cccc(F)c7)c(Cl)c6)c5c4)o3)C(=C/C=C3/N(CCCS(=O)(=O)O)c4ccc(S(=O)(=O)O)cc4C3(C)C)/CCC2)=[N+](CCCS(=O)(=O)O)c2ccc(S(=O)(=O)[O-])cc21 [YQ-H-03], the “fluorescence signals in liver” value was “strong fluorescence signals in liver” and the tumor targeting effect was “a certain tumor targeting effect”.
